Results: US20240024273A1, “TOPICAL ADMINISTRATION OF 2-(DIETHYLAMINO)ETHYL 2-(4-ISOBUTYLPHENYL)PROPRIONATE FOR TREATMENT OF DISEASES” (TECHFIELDS PHARMA CO., LTD., priority 2020, published 2024)
Where two headings read alike, the source gives them in different places.

Experiments:
[1] = Phase 1 clinical study: plasma pharmacokinetics of prodrug and ibuprofen; type: in vivo, human; conditions: 70 mg; for AUC0-12 / Cmax: human, plasma; for AUC0-12: read-out: prodrug AUC0-12, geometric mean; for Cmax: read-out: prodrug Cmax, geometric mean
Protocol: Following a 5-day washout period, 2-(diethylamino)ethyl 2-(4-isobutylphenyl)propionate was administered b.i.d. during Days 6-11, and a morning dose only was administered to Day 12. Blood samples were collected for PK analysis over the 120-hour post-dose period following the Day 12 dose. Additionally, pre-dose blood samples were collected on Day 7 through Day 11 to evaluate steady-state status.
The same study procedures were followed as described in Part 1.
For single dose PK, serial blood samples were collected on Day 1 dose at the following time points: 0 (pre-dose), 0.25, 0.5, 0.75, 1, 1.5, 2, 2.5, 3, 4, 5, 6, 8, 10, 12, 18, 24, 48, 72, 96 and 120 hours post-dose.
For multiple-dose PK, serial blood samples were collected on Day 12 at the following time points: 0 (pre-dose), 0.25, 0.5, 0.75, 1, 1.5, 2, 2.5, 3, 4, 5, 6, 8, 10, 12, 18, 24, 48, 72, 96 and 120 hours post-dose.
The relative bioavailability of the single dose 70 mg topical application vs. 70 mg spray application was determined based on AUCtau, AUCinf and Cmax. The 90% confidence intervals (CIs) on the ratio of topical application vs. spray application were calculated.

[2] = system: osteoarthritis of the knee; conditions: cited from earlier work
Osteoarthritis [3] = conditions: n=107; placebo −33.6; cited from earlier work
Osteoarthritis [4] = conditions: cited from earlier work
[5] = topical or ocular, Day 1, 70 mg topical
[6] = topical or ocular, Day 12, 70 mg topical

## CCN(CC)CCOC(=O)C(C)c1ccc(CC(C)C)cc1.Cl (stereo not drawn) [2-(diethylamino)ethyl 2-(4-isobutylphenyl)propionate hydrochloride]
[1]; Day 1
  prodrug AUC0-12 ratio Topical/Spray: 3.28
  prodrug Cmax ratio Topical/Spray: 1.34
[1]; Day 12
  prodrug AUC0-12 ratio Topical/Spray: 0.91
  prodrug Cmax ratio Topical/Spray: 0.93
[1]; [5]
  AUC0-12: 0.913 ng·h/mL
  Cmax: 0.138 ng/mL
[1]; [6]
  AUC0-12: 0.953 ng·h/mL
  Cmax: 0.143 ng/mL
[1]; topical, Day 1, 70 mg spray
  AUC0-12: 0.279 ng·h/mL
  Cmax: 0.102 ng/mL
[1]; topical, Day 12, 70 mg spray
  AUC0-12: 1.05 ng·h/mL
  Cmax: 0.155 ng/mL

## COc1ccc2cc([C@H](C)C(=O)O)ccc2c1 [Naproxen]
[2]; naproxen group
  average daily paracetamol use: 670 mg
Osteoarthritis [3]
  Patient's Assessment of Arthritis Pain (VAS 0-100 mm), change: −37.5 mm
Osteoarthritis [4]; 500 mg BID oral, Week 12
  difference from placebo, sign and symptoms of OA: −5.8
Osteoarthritis [4]; 500 mg BID
  patients improved by 2 grades or more from baseline (physician's global assessment): 33%
Osteoarthritis [4]; 500 mg, BID, orally, 12 Weeks, scale 0 to 96
  Mean ± SEM WOMAC Osteoarthritis Index Composite Score Change from Baselines: −11.9 ± 1.29

## COc1ccc2cc([C@H](C)C(=O)OCCCCO[N+](=O)[O-])ccc2c1 [naproxcinod]
[2]; active groups
  decrease of paracetamol use vs placebo group: 19.2% to 24.9
